{"source": "patent US20100137261A1", "about": "“Method for treating aortic stenosis with non-antibacterial tetracycline formulations” (priority 2004, published 2010)", "key": {"[1]": {"tested_on": "matrix metalloproteinase-9 (MMP-9) synthesis", "test": "Stenotic valve tissue culture, gelatinase (MMP-2 and MMP-9) assay", "format": "cell-based", "procedure": "The study was conducted using tissue collected from four surgically removed, stenotic tricuspid valves. […] Gelatinases (MMP-2 and MMP-9) from the valve tissue samples were assayed. The analyzed bands were related to the total protein measured using a Bio-Rad DC Protein Assay Kit (Bio-Rad, Hercules, Calif.)."}, "[2]": {"test": "Serum levels after oral dosing in humans", "settings": "dose of about 10 to about 20 mg/day"}, "[3]": {"settings": "single dose of two 100 mg minocycline HCl tablets, adult human; cited from earlier work"}, "[4]": {"settings": "250 mg tetracycline HCl every six hours over a twenty-four hour period; cited from earlier work"}, "[5]": {"settings": "1 μM, stenotic tricuspid valve tissue incubated for ten days"}}, "note": "Where a name gives a salt, the structure may show the parent alone. Read-outs that look alike come from different tables or passages of the source."}
{"smiles": "NC(=O)C1=C(O)C[C@@H]2C[C@@H]3Cc4cccc(O)c4C(=O)C3=C(O)[C@]2(O)C1=O", "note": "[CMT-3, 6-demethyl-6-deoxy-4-de(dimethylamino)tetracycline]", "values": [{"measurement": "MMP-9 inhibitory effect", "setting": "[1]", "value": "inhibitory effect was seen"}, {"measurement": "comparative efficiency of impact on MMP-9 synthesis", "setting": "[1]", "value": "most efficient inhibitor of MMP-9 synthesis"}, {"measurement": "expression of MMP-9 / MMP-9 synthesis", "setting": "[1]", "value": "decreased significantly from day 6 to the end of the culture"}, {"measurement": "serum levels in humans", "setting": "[2]", "value": "about 1.0 μg/ml"}]}
{"smiles": "CC1c2cccc(O)c2C(=O)C2=C(O)C3(O)C(=O)C(C(N)=O)=C(O)CC3C(O)C21", "note": "(stereo not drawn) [CMT-8, 4-dedimethylaminodoxycycline]", "values": [{"measurement": "MMP-9 inhibitory effect", "setting": "[1]; [5]", "value": "inhibitory effect was seen"}]}
{"smiles": "CN(C)c1ccc(O)c2c1C[C@H]1C[C@H]3[C@H](N(C)C)C(O)=C(C(N)=O)C(=O)[C@@]3(O)C(O)=C1C2=O", "note": "[minocycline HCl]", "values": [{"measurement": "minocycline serum level (average)", "setting": "[3]", "value": 2.24, "unit": "µg/mL"}]}
{"smiles": "CN(C)[C@@H]1C(O)=C(C(N)=O)C(=O)[C@@]2(O)C(O)=C3C(=O)c4c(O)cccc4[C@@](C)(O)[C@H]3C[C@@H]12", "note": "[tetracycline HCl]", "values": [{"measurement": "peak plasma concentration", "setting": "[4]", "value": "approximately 3 μg/ml"}]}
{"smiles": "CN(C)[C@@H]1C(O)=C(C(N)=O)C(=O)[C@@]2(O)C(O)=C3C(=O)c4c(O)cccc4[C@@](C)(O)[C@H]3C[C@@H]12", "note": "[tetracycline]", "values": [{"measurement": "MMP-9 inhibitory effect", "setting": "[1]; [5]", "value": "no significant inhibitory effect"}, {"measurement": "expression of MMP-9 / MMP-9 synthesis", "setting": "[1]; 30 μM, stenotic tricuspid valve tissue incubated for ten days", "value": "had an inhibitory effect on MMP-9 synthesis, but only at the end of the culture"}]}
